Data taken from paper PMC3234597, “Two Panels of Steroid Receptor Luciferase Reporter Cell Lines for Compound Profiling” (Combinatorial Chemistry & High Throughput Screening, 2011).
Where two headings read alike, the source gives them in different places.

Experiments:
Format in all cases: cell-based
[1] = target: T1, PR-LBD fused to Gal4-DBD (Homo sapiens, UniProt P06401); assay: U2OS-PR-LBD/9xGal4UAS luciferase reporter cell line; conditions: for Log EC50: agonist mode, 20 h, log10 of molar EC50, mean ± SEM
T1 construct: PR-LBD region was PCR amplified using the following primer combination; host or cells: U2OS
T1 sequence (P06401 679-913 limits assumed): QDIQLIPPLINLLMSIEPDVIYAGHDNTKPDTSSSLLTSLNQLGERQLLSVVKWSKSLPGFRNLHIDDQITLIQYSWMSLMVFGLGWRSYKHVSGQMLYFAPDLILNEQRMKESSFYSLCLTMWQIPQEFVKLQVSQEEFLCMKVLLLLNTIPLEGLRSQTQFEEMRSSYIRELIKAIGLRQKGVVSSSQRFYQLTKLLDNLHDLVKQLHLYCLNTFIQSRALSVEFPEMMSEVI

[2] = target: T2, human AR (full-length) (Homo sapiens, UniProt P10275); assay: U2OS-AR/3xGRE luciferase reporter cell line (full-length receptor); conditions: for Log EC50: agonist mode, 20 h, log10 of molar EC50, mean ± SEM; for Log EC50 / Log IC50: AR/3xGRE; for Log IC50: antagonist mode, in the presence of 0.05 nM dihydrotestosterone, log10 of molar IC50, mean ± SEM
T2 construct: expression vectors encoding full-length steroid receptors: pcDNA3-hAR and pcDNA3-hGR; host or cells: U2OS
T2 sequence (P10275 1-920): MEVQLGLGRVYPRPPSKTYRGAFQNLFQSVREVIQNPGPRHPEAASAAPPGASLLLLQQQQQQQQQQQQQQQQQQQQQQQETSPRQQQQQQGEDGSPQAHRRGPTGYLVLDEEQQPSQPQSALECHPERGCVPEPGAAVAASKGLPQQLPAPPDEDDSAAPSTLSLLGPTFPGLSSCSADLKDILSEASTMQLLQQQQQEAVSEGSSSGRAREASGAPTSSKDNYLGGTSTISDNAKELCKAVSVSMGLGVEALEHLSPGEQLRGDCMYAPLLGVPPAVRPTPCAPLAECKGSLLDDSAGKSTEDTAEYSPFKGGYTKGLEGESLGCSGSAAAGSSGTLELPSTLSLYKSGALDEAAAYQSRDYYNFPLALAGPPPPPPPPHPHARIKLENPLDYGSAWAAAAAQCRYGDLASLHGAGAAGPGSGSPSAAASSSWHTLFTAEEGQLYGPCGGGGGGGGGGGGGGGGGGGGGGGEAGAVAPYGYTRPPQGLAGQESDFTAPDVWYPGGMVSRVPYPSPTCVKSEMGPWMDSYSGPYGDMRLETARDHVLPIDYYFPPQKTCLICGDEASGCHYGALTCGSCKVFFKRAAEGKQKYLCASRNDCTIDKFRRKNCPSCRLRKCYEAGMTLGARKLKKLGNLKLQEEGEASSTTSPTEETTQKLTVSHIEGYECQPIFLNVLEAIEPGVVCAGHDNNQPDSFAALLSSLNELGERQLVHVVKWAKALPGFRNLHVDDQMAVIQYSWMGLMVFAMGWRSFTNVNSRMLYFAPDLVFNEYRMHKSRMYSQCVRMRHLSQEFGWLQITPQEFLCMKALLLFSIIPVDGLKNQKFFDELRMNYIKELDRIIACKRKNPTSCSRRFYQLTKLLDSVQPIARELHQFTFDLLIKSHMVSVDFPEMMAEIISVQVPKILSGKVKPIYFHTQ

[3] = target: T3, GR-LBD fused to Gal4-DBD (Homo sapiens, UniProt P04150); assay: U2OS-GR-LBD/9xGal4UAS luciferase reporter cell line; conditions: for Log EC50: agonist mode, 20 h, log10 of molar EC50, mean ± SEM; for Log EC50 / Log IC50: GR-LBD/9xGal4UAS; for Log IC50: antagonist mode, in the presence of 5 nM dexamethasone, log10 of molar IC50, mean ± SEM
T3 construct: expressed in transfected cells; host or cells: U2OS
T3 sequence (P04150 524-758 limits assumed): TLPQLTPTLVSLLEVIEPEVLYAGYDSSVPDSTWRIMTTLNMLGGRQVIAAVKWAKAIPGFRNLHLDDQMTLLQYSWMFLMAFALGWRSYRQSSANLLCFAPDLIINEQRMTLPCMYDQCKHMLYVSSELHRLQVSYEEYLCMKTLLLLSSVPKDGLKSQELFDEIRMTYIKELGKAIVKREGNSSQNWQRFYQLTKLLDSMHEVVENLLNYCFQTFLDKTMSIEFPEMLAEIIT

[4] = target: T4, ERα^G420C-LBD fused to Gal4-DBD (Homo sapiens, UniProt P03372, G420C); assay: U2OS-ERα^G420C-LBD/9xGal4UAS luciferase reporter cell line
T4 construct: expressed in transfected cells; host or cells: U2OS
T4 sequence (P03372 311-547 G420C limits assumed): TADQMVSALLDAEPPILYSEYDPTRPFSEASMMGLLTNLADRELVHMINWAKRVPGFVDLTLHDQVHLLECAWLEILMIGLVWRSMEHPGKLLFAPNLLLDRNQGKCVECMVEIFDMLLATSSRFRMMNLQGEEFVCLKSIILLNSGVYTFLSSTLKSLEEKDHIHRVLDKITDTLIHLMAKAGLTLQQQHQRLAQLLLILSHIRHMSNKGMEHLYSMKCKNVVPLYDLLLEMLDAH

[5] = target: T5, ERα^wt-LBD fused to Gal4-DBD (Homo sapiens, UniProt P03372); assay: U2OS-ERα^wt-LBD/9xGal4UAS luciferase reporter cell line
T5 construct: ERα-LBD (amino acids 303-595) based on GenBank NM_000125; expressed in transfected cells; host or cells: U2OS
T5 sequence (P03372 303-595): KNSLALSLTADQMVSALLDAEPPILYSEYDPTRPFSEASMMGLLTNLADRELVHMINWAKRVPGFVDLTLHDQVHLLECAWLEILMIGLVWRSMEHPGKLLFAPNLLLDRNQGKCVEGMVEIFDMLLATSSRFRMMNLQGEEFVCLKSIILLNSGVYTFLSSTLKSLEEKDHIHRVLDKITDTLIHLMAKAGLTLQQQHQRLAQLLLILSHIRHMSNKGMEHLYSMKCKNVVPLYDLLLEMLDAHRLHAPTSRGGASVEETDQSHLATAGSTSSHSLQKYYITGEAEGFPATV

[6] = antagonist mode, PR-LBD/9xGal4UAS, log10 of molar IC50, mean ± SEM
[7] = antagonist mode, PR-LBD/9xGal4UAS, log10 of molar IC50, mean ± SEM, read-out: Log IC50 (converted)

| SMILES | Log EC50 ([1]; PR-LBD/9xGal4UAS) [M] | Log IC50 [1, 6] [M] | EC50 [4] [µM] | IC50 [1, 7] [µM] | EC50 ([1]; read-out: Log EC50 (converted)) [nM] | EC50 [2] [µM] | EC50 ([3]; read-out: Log EC50 (converted)) [µM] | EC50 [5] [µM] | other results |
| --- | --- | --- | --- | --- | --- | --- | --- | --- | --- |
| CC[C@@H]1Cc2cc(O)ccc2C2=C1c1ccc(O)cc1C[C@H]2CC (relative stereo) [R.R-THC, (R,R)-cis-diethyltetrahydro-2,8-chrysenediol] | > -5.00 | -5.52 ± 0.70 |  |  |  |  |  |  | Log EC50 [2]: > -5.00 M; Log IC50 [2]: -5.26 ± 0.28 M; Log EC50 [3]: > -5.00 M; Log IC50 [3]: > -5.00 M |
| C[C@]12CCC(=O)C=C1CC[C@@H]1[C@@H]2[C@@H](O)C[C@]2(C=O)[C@@H](C(=O)CO)CC[C@@H]12 [Aldosterone, aldosterone] |  |  | > 10 | 3.72 | 1120 | > 10 | 1.15 | > 10 |  |
| C[C@H]1C[C@H]2[C@@H]3CCC4=CC(=O)C=C[C@]4(C)[C@@]3(Cl)[C@@H](O)C[C@]2(C)[C@@]1(O)C(=O)CO [Beclomethasone, beclomethasone] | -5.20 ± 0.05 | > -5.00 |  |  |  |  |  |  | Log EC50 ([4]; agonist mode, ERα^G420C-LBD/9xGal4UAS, 20 h, log10 of molar EC50, mean ± SEM): > -5.00 M; Log IC50 ([4]; antagonist mode, ERα^G420C-LBD/9xGal4UAS, in the presence of 20 nM E2, log10 of molar IC50, mean ± SEM): > -5.00 M; Log EC50 ([5]; agonist mode, ERα^wt-LBD/9xGal4UAS, 20 h, log10 of molar EC50, mean ± SEM): > -5.00 M; Log IC50 ([5]; antagonist mode, ERα^wt-LBD/9xGal4UAS, in the presence of 1 nM E2, log10 of molar IC50, mean ± SEM): > -5.00 M |
| C[C@]12C[C@H](O)[C@H]3[C@@H](CCC4=CC(=O)CC[C@@]43C)[C@@H]1CC[C@@H]2C(=O)CO [Corticosterone, corticosterone] |  |  | > 10 | > 10 | 72.4 |  | 0.269 | > 10 |  |
| C#C[C@]1(O)CC[C@H]2[C@@H]3CCC4=Cc5oncc5C[C@]4(C)[C@H]3CC[C@@]21C [Danazol, danazol] |  |  | > 10 | 0.692 | 91.2 |  | > 10 | 0.245 |  |
| O=c1c(-c2ccc(O)cc2)coc2cc(O)cc(O)c12 [Genistein, genistein] |  |  |  |  |  | > 10 |  |  | EC50 [1]: > 10000 nM; IC50 [1]: > 10 µM; EC50 [3]: > 10 µM |
| C[C@]12CC[C@@H]3c4ccc(O)cc4C[C@@H](CCCCCCCCC[S+]([O-])CCCC(F)(F)C(F)(F)F)[C@H]3[C@@H]1CC[C@@H]2O (stereo partly shown) [ICI 182.780] | > -5.00 | > -5.00 |  |  |  |  |  |  | Log EC50 [2]: > -5.00 M; Log IC50 [2]: > -5.00 M; Log EC50 [3]: > -5.00 M; Log IC50 [3]: > -5.00 M |
| CCCc1c(-c2ccc(O)cc2)nn(-c2ccc(O)cc2)c1-c1ccc(O)cc1 [PPT, propyl pyrazole triol] |  |  | 0.0115 | > 10 | 4270 | > 10 | > 10 | 0.0024 |  |
| CCC(=O)[C@@]1(C)CC[C@H]2[C@@H]3CCC4=CC(=O)CCC4=C3CC[C@@]21C [Promegestone (R5020), promegestone] |  |  | > 10 | > 10 | 0.0129 | > 10 | > 10 | > 10 |  |
| C[C@]12C=CC(=O)C=C1CC[C@H]1[C@@H]3C[C@@H](O)[C@](O)(C(=O)CO)[C@@]3(C)C[C@H](O)[C@@]12F [Triamcinolone, triamcinolone] |  |  | > 10 | > 10 | 58.9 |  | 0.0102 | > 10 |  |
